This note sets out measurements from patent US10774049B2, “PU.1 inhibitors” (Albert Einstein College of Medicine, priority 2016, dated 2020).

Where a name gives a salt, the structure may show the parent alone.

Type in all cases: cell-based
In one data set the test system is primary human AML cells. As to the kind of experiment: Primary human AML mononuclear cells in semi-solid media (viable cells, colonies, apoptosis). As to conditions: for mean decrease in number of viable cells / mean decrease of clonogenic capacity: in comparison to vehicle; for average increase of apoptotic cell fraction: vs vehicle. On the procedure: FIG. 4A-4G. PU.1 inhibition decreases cell growth and increases apoptosis of primary human AML cells. (A-C) Transduced GFP+ human primary mononuclear AML cells were plated in semi-solid media (150 000 cells per ml of methyl); colony number, number of viable cells and apoptotic cells were assessed after 14 days of culture. (A, B) Clonogenic capacities and number of viable cells after transduction with shPU.1_1 and shPU.1_2 (n=7). (C) Apoptotic cells (Annexin-V+Dapi−) fraction after transduction with shPU.1_1 and shPU.1_2 (n=7). (D-F) Human primary mononuclear AML cells were plated in semi-solid media (150 000 cells per ml of methyl) containing the PU.1 inhibitors DB1976, DB2115 and DB2313; colony number, number of viable cells and apoptotic cells were assessed after 14 days of culture. (D-E) Clonogenic capacities (n=9) and number of viable cells (n=8) after treatment. (F) Apoptotic cells (Annexin-V+Dapi−) fraction after treatment (n=8). […] (A-G) Data represent means±SD, each AML sample is represented by an individual dot. Fold change compared to shCtrl or Vehicle is shown.
To determine whether PU.1 inhibition has an effect on primary cells from AML patients, we seeded mononuclear cells from AML patients in semi-solid media for 2 weeks and assessed the number of colonies, the number of viable cells and the proportion of apoptotic cells. […] At the same time, the proportion of apoptotic cells increased on average of 2-fold upon knockdown of PU.1 in primary human AML cells with the more efficient shRNA (shPU.1_2) (FIG. 1F).
We also explored the effect of the small molecule PU.1 inhibitors on primary human AML cells, and treated 11 samples from AML patients with PU.1 inhibitors. PU.1 inhibitors led to significant decreases in the number of viable cells (mean decrease: 81% for DB1976, 68% for DB2115, 72% for DB2313) (FIG. 3E), and clonogenic capacity (mean decrease of 36% for DB1976, 45% for DB2115, 60% for DB23313), in comparison to vehicle (FIG. 3F). The apoptotic cell fraction increased on average by 1.5-fold with DB1976, 2.2-fold with DB2115 and 2.5-fold with DB2313 (FIG. 3G).

The test system of the next data set is PU.1 transactivation. As to the kind of experiment: GFP reporter expression in bone marrow mononuclear cells of PU.1-GFP knock-in reporter mouse. As to conditions: PU.1-GFP knock-in bone marrow mononuclear cells. The text has this:
To assess on-target activity of our inhibitors in AML cells, we measured transcript levels of well-known PU.1 targets in PU.1 URE^−/− AML cells. It has been shown that PU.1 positively regulates Csf1r, Junb, and autoregulates itself, whereas it represses E2f1. In line with this, we found a decrease in Csf1r, Junb, and PU.1 transcript expression and an increase in E2f1 expression upon treatment with DB2115, or DB2313 (FIG. 4A, left panel). As Csf1r is one of the most sensitive PU.1 targets in myeloid cells, we assessed its expression at different time points (1 h, 4 h, 8 h and 24 h) after drug treatment. […] Furthermore, treatment of bone marrow mononuclear cells isolated from a PU.1-GFP knock-in reporter mouse model led to a decrease in GFP reporter expression after treatment with DB1976, DB2115, or DB2313, further confirming a direct effect of the compounds on PU.1 transactivation (FIG. 4B), and consistent with PU.1 positive autoregulation.

Data set [1] concerns PU.1 occupancy on E2f1, Junb and Csf1r promoters. As to the kind of experiment: Chromatin immunoprecipitation of PU.1 on target promoters in AML cells. As to conditions: ChIP. On the procedure:
FIG. 3A-3G. Novel inhibitors show on-target PU.1 inhibitory activity. (A) Quantitative RT-PCR analysis of Csf1r, Junb, Sfpi1, E2f1 expression after 72 h (n=6) and, for Csf1r, after 1 h (n=3), 4 h (n=7), 8 h (n=3) and 24 h (n=3) of treatment with the small molecules in URE−/− cells, expression is normalized to GAPDH expression. Data represent means±SD of technical triplicate from one representative experiment; fold change compared to Vehicle is shown. (B) Chromatin immunoprecipitation assay showing PU.1 occupancy on E2f1, Junb, Csf1r promoters after treatment in Umsh cell line (n=5). 10·10^6 cells were collected for each condition after 8 h treatment with a double dose of the small molecules (50 uM for DB1976, 1.4 uM for DB2115 and 660 nM for DB2313) or Vehicle; and processed for ChIP using PU.1 monoclonal antibody. Myogenin was used as a negative control, not regulated by PU.1. Data represent means±SD of technical triplicate from one representative experiment. (C) Cell viability after PU.1 rescue in MOLM13 cells. MOLM13 were transduced with a lentiviral construct expressing either PU.1-GFP (PU.1, black bar) or GFP as a control (empty, white bar), sorted on GFP and plated with DB1976 (n=7), DB2115 (n=8), DB2313 (n=6) or Vehicle. Cell count was performed after 4 days. Data represent means±SD of technical triplicate from one representative experiment; fold change compared to Vehicle is shown. (D-G) Transcriptome analysis of URE−/− cells after 24 h of treatment with DB2313 versus vehicle (n=3). Differentially expressed genes were determined with a fold change at 1.2 and a P value <0.1. […] Deregulated gens in PUER cells were analyzed with a FC at 1.5 and P-value <0.05. […] P-value was calculated using the hypergeometric test. […]
To assess on-target activity of our inhibitors in AML cells, we measured transcript levels of well-known PU.1 targets in PU.1 URE^−/− AML cells. […] As Csf1r is one of the most sensitive PU.1 targets in myeloid cells, we assessed its expression at different time points (1 h, 4 h, 8 h and 24 h) after drug treatment. […]

Turning to `N=C(N)c1ccc2nc(-c3ccc(-c4nc5ccc(C(=N)N)cc5[nH]4)[se]3)[nH]c2c1` [DB1976], in the data set on primary human AML cells, the “mean decrease in number of viable cells” value turned out to be 81%, the “mean decrease of clonogenic capacity” value was found to be 36% and the “average increase of apoptotic cell fraction” value stood at 1.5 fold. Further, in the data set on PU.1 transactivation, the GFP reporter expression entry is “decrease”. Further, the “PU.1 occupancy on E2f1, Junb and Csf1r promoters” value in data set [1] was “decreased”.
As to `N=C(N)c1ccc2nc(-c3ccc(OCCCCOc4ccc(-c5nc6ccc(C(=N)N)cc6[nH]5)cc4)cc3)[nH]c2c1` [DB2115], in the data set on primary human AML cells, the “mean decrease in number of viable cells” value was 68%, the “mean decrease of clonogenic capacity” value is listed as 45% and the “average increase of apoptotic cell fraction” value was determined as 2.2 fold. Also, in the data set on PU.1 transactivation, the GFP reporter expression result is “decrease”. In data set [1], the “PU.1 occupancy on E2f1, Junb and Csf1r promoters” value is recorded as “decreased”.
The like results for `CC(C)NC(=N)c1ccc2nc(-c3ccc(OCc4cccc(COc5ccc(-c6nc7ccc(C(=N)NC(C)C)cc7[nH]6)cc5)c4F)cc3)[nH]c2c1` [DB2313, 3-Bis{4[4(5)-N-isopropylamidinobenzimidazolyl]phenoxymethyl]}-2-fluorobenzene tetrahydrochloride] were, in that order, 72%, 60%, 2.5 fold, “decrease” and “decreased”.
